Results from US20110144159A1, “ETHER BENZYLIDENE PIPERIDINE ARYL CARBOXAMIDE COMPOUNDS USEFUL AS FAAH INHIBITORS” (Pfizer Inc, priority 2008, published 2011).

Biological target: T1, Human FAAH (Homo sapiens, UniProt O00519)
T1 construct: made in house
T1 sequence (O00519 32-579 limits assumed): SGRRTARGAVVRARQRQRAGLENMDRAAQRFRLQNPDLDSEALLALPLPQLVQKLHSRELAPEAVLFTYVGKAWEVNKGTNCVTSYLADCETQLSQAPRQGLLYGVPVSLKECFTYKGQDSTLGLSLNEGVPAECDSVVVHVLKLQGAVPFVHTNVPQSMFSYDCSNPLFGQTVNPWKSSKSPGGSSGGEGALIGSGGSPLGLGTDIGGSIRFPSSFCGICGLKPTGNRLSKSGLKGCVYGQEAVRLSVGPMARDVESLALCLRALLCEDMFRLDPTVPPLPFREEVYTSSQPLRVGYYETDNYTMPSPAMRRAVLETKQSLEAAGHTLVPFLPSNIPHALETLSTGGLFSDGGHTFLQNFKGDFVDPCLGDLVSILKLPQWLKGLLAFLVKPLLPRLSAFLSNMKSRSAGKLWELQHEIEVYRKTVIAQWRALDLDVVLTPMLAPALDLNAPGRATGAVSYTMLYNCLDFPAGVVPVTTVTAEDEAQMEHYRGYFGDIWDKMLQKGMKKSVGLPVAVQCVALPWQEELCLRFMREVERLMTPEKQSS
Test: FAAH assay (glutamate dehydrogenase-coupled, oleamide substrate, absorbance at 340 nm)
Format: biochemical
Settings: irreversible inhibition potency
Procedure: A FAAH assay may be carried out in 384-well clear polystyrene plates in a total volume of 50 μl per well. All percents are by volume. To each well was placed the reaction mixture (40 μl) containing 1-4 nM FAAH, 50 mM NaPi, pH 7.4, 3 mM α-ketoglutarate, 0.15 mM NADH, 7.5 U/ml glutamate dehydrogenase, 2 mM ADP, 1 mM EDTA, and 0.1% Triton X-100 (The concentration shown for each component was the final concentration in the assay). To this mixture was added 5 μl of a compound of Examples 1 to 20 at various concentrations prepared in 50% DMSO (or 5 μl 50% DMSO for controls). This was immediately followed by the addition of 5 μl oleamide (500 μM) dissolved in 75% EtOH/25% DMSO and the reaction mixture was mixed for 1.5 min. The final concentrations of DMSO and EtOH in the assay are each 7.5%. The reactions was then incubated at 30° C. and the absorbance at 340 nm was collected over a period of 90 min with readings taken in 30-second intervals using SpectraMax Plus^384 Microplate Spectrophotometer (Molecular Devices, Sunnyvale, Calif.). Human FAAH used in the assay was prepared as described in the patent application WO 2006/067613. The purity of the enzyme used was greater than 98% based on an analysis by SDS-polyacrylamide gel electrophoresis followed by Coomassie Blue staining.
Initial velocity data (V) is obtained from the slopes of the initial progressive curves. They are plotted as a function of substrate concentration and fit to the Michaelis-Menten equation (1) using Prism (GraphPad Software, Inc., San Diego, Calif.) software to obtain Km and Vmax values.
To obtain potencies of irreversible inhibitors, progressive curves consistent with first order inhibition kinetics (two-step irreversible inhibition mechanism) are fit to equation (2) by nonlinear least squares regressions to determine kobs values at each inhibitor concentration, where [P]t is the absorbance at time t, V0 is a constant related to the steady state rate of the uninhibited reaction, and kobs is the first order rate constant for enzyme inactivation. The inhibitor dissociation constant (Ki) and the first order rate
constant of enzyme inactivation at infinite inhibitor concentration (kinact) are then obtained by fitting the kobs vs. [I] curves to equation (3).

Row | Compound | hFAAH KInact/K [M⁻¹ s⁻¹]
1 | O=C(Nc1cccnc1)N1CCC(=Cc2cccc(OC3CCOC3)c2)CC1 (stereo not drawn) [Example 20, N-pyridin-3-yl-4-[3-(tetrahydrofuran-3-yloxy)benzylidene]piperidine-1-carboxamide] | 451
2 | CCCC(CC)Oc1cccc(C=C2CCN(C(=O)Nc3cccnn3)CC2)c1 (stereo not drawn) [Example 41, 4-[3-(1-ethylbutoxy)benzylidene]-N-pyridazin-3-ylpiperidine-1-carboxamide] | 1800
3 | 4-{3-[(2-methylpyridin-3-yl)methoxy]benzylidene}-N-pyridazin-3-ylpiperidine-1-carboxamide [Example 59] | 328
4 | CC1CCC(Oc2cccc(C=C3CCN(C(=O)Nc4cccnc4)CC3)c2)CC1 (stereo not drawn) [Example 36, 4-{3-[(4-methylcyclohexyl)oxy]benzylidene}-N-pyridin-3-ylpiperidine-1-carboxamide] | 992
5 | Cc1cccc(OCCOc2cccc(C=C3CCN(C(=O)Nc4cccnn4)CC3)c2)c1 [Example 52, 4-{3-[2-(3-methylphenoxy)ethoxy]benzylidene}-N-pyridazin-3-ylpiperidine-1-carboxamide] | 31600
6 | O=C(Nc1cccnn1)N1CCC(=Cc2ccc3c(c2)OCCO3)CC1 [Example 4, 4-(2,3-dihydro-1,4-benzodioxin-6-ylmethylene)-N-pyridazin-3-ylpiperidine-1-carboxamide] | 2770
7 | O=C(Nc1cccnc1)N1CCC(=Cc2cccc(OC3CCOCC3)c2)CC1 [Example 43, N-pyridin-3-yl-4-[3-(tetrahydro-2H-pyran-4-yloxy)benzylidene]piperidine-1-carboxamide] | 738
8 | COc1ccc(CCOc2cccc(C=C3CCN(C(=O)Nc4cccnn4)CC3)c2)cc1 [Example 77, 4-{3-[2-(4-methoxyphenyl)ethoxy]benzylidene}-N-pyridazin-3-ylpiperidine-1-carboxamide] | 207
9 | O=C(Nc1cccnn1)N1CCC(=Cc2cccc(OC3CCC(F)(F)CC3)c2)CC1 [Example 106, 4-{3-[(4,4-difluorocyclohexyl)oxy]benzylidene}-N-pyridazin-3-ylpiperidine-1-carboxamide] | 16400
10 | CC(C)Oc1cccc(C=C2CCN(C(=O)Nc3cccnn3)CC2)c1 [Example 40, 4-(3-isopropoxybenzylidene)-N-pyridazin-3-ylpiperidine-1-carboxamide] | 2350
11 | CCC(C)Oc1cccc(C=C2CCN(C(=O)Nc3cccnn3)CC2)c1 (stereo not drawn) [Example 21, 4-(3-sec-butoxybenzylidene)-N-pyridazin-3-ylpiperidine-1-carboxamide] | 973
12 | O=C(Nc1cccnn1)N1CCC(=Cc2cccc(OCCc3cnoc3)c2)CC1 [Example 60, 4-[3-(2-isoxazol-4-ylethoxy)benzylidene]-N-pyridazin-3-ylpiperidine-1-carboxamide] | 2190
13 | Cc1ccc(COc2cccc(C=C3CCN(C(=O)Nc4cccnn4)CC3)c2)cn1 [Example 74, 4-{3-[(6-methylpyridin-3-yl)methoxy]benzylidene}-N-pyridazin-3-ylpiperidine-1-carboxamide] | 188
14 | O=C(Nc1cccnn1)N1CCC(=Cc2cccc(OC3CCCC3)c2)CC1 [Example 13, 4-[3-(cyclopentyloxy)benzylidene]-N-pyridazin-3-ylpiperidine-1-carboxamide] | 2570
15 | O=C(Nc1cccnc1)N1CCC(=Cc2cccc(OC3CCCCCC3)c2)CC1 [Example 18, 4-[3-(cycloheptyloxy)benzylidene]-N-pyridin-3-ylpiperidine-1-carboxamide] | 1020
